Reference: patent US11813305B2, “Endoplasmic reticulum stress as a predictive tool in cancer therapy and a combination therapy for the treatment of cancer” (IMMUNE SYSTEM KEY LTD., priority 2016, dated 2023)

Experiments:
B16 cells = assay: Melanoma tumors in mice, dTCApFs and doxorubicin; type: in vivo, C57bl/6 mice; conditions: doxorubicin alone, once a week at 3 mg/kg, FIG. 17
Description: In order to examine the effect of a combination of dTCApFs and doxorubicin on melanoma tumor volume, the following experiments were performed in mice. C57bl/6 mice (28) were inoculated SC with 0.2 million B16 cells (ATCC) per mouse. B16 melanoma is a murine tumor cell line used for research as a model for human skin cancers. When tumors exceeded a volume of 50 mm^3, the mice were randomly divided into 4 groups, as follows. “Control” group (n=6) was treated with 5% mannitol; “dTCApFs” treated group (n=6) was treated once a week with dTCApFs (at 15 mg/kg); “Dox” treated group (n=6) was treated once a week with doxorubicin (at 3 mg/kg); and dTCApFs+Dox same day” group (n=10) was treated once a week with dTCApFs and doxorubicin (at 15 mg/kg and 3 mg/kg, respectively), when both agents were administered on the same day.

[1] = tested on: human TNBC cells (human MDA231); assay: Triple negative breast cancer tumors in mice; type: in vivo, nude mice; conditions: doxorubicin alone, once a week at 3 mg/kg, FIG. 14
Description: Therefore, 32 nude mice were inoculated subcutaneously (S.C.) with 9 million human TNBC cells (human MDA231, ATCC) per mouse. Cells were cultured as known in the art, for example, as described above. When the tumors exceeded a volume of 40 mm^3, the mice were randomly divided into five groups, as follows. The “Control” group (n=5) was treated with 5% mannitol; the “dTCApFs” group (n=5) was treated once a week with dTCApFs at 15 mg/kg; the “Dox” group (n=5) was treated once a week with doxorubicin (Sigma Aldrich) at 3 mg/kg; the “dTCApFs+Dox next day” (n=8) group was treated with dTCApFs at 15 mg/kg and 24 hours later also with doxorubicin, at 3 mg/kg; and the “dTCApFs+Dox same day” (n=9) group was treated with dTCApFs at 15 mg/kg and with doxorubicin at 3 mg/kg, on same day.

[2] = tested on: human ovarian cancer cells (OV90); assay: BrdU incorporation assay; type: cell-based; conditions: Taxol alone, 2 nM or 4 nM, FIG. 13A
Description: (§1) Cells were placed at 2,000 cells/well in the middle of a 96 well plate with 100 μl DMEM (life science 41965-039) and 10% fetal calf serum (FBS, Biological industries 14-127-1A) for 24 hours in an incubator at 37° C. with 5% CO2. The medium was then replaced to 200 μl DMEM with 2.5% FBS and Taxol (sigma T7402) at a final concentration of 2 nM or 4 nM in DMSO or dTCApFs (nextar ISK353-01 batch 351-01/1.68) at a final concentration of 25 μg/ml in DMSO. The medium in the control cells was replaced by DMEM and FBS as indicated above. The maximal concentration of DMSO in the cell wells was less than 0.5%. Four wells were used for each concentration.
(§2) Taxol- and dTCApFs-treated cells as well as the control cells were further incubated for 24 hours in the presence of BrdU as follows: 20 μl BrdU reagent (diluted 1:100 in DMEM supplemented with 2.5% FBS) was added to the cells and the plate was incubated 24 hours in 37° degrees incubator with 5% CO2. BrdU ELISA was performed according to the kit protocol (Millipore #2752).
(§3) Cells were placed at 2000 cells/well in the middle of a 96 well plate with 100 μl DMEM and 10% FBS for 24 hours in an incubator at 37° C. with 5% CO2. The medium was then replaced to 200 μl DMEM with 2.5% FBS and dTCApFs at a final concentration of 25 μg/ml (nextar ISK353-01 batch 351-01/1.68) in DMSO. The maximal concentration of DMSO in the cells wells was less than 0.5%. […]

[3] = tested on: human pancreatic cancer cells (BxPC3); assay: BrdU incorporation assay; type: cell-based; conditions: Taxol alone, 2 nM or 4 nM, FIG. 13B
Description: as §1, §2, §3

Row | Compound | tumor volume (B16 cells) | tumor volume [1] | cell viability (BrdU incorporation) [2] | cell viability (BrdU incorporation) [3]
1 | COc1cccc2c1C(=O)c1c(O)c3c(c(O)c1C2=O)C[C@@](O)(C(=O)CO)C[C@@H]3O[C@H]1C[C@H](N)[C@H](O)[C@H](C)O1 [doxorubicin] | tumor volume clearly increased | clear increase in tumor volume | – | –
2 | CC(=O)O[C@H]1C(=O)[C@@]2(C)[C@H]([C@H](OC(=O)c3ccccc3)[C@]3(O)C[C@H](OC(=O)[C@H](O)[C@@H](NC(=O)c4ccccc4)c4ccccc4)C(C)=C1C3(C)C)[C@]1(OC(C)=O)CO[C@@H]1C[C@@H]2O [Taxol, Paclitaxel] | – | – | no effect on cell viability was observed | no effect on cell viability was observed
